Assay results reported in US7288562B2, “Fluoro and sulphonylamino containing 3,6-disubstituted azabicyclo (3.1.0) hexane derivatives as muscarinic receptor antagonists” (priority 2002, dated 2007).
Read-outs that look alike come from different tables or passages of the source.

Experiments:
M2 muscarinic receptor = molecular target: T1, M2 muscarinic receptor (Rattus norvegicus, UniProt P10980); experiment: Radioligand binding assay, [3H]-N-methylscopolamine, rat heart membranes; conditions: [3H]-NMS
T1 construct: from tissue; host or cells: rat heart membrane homogenate
T1 sequence (P10980 1-466): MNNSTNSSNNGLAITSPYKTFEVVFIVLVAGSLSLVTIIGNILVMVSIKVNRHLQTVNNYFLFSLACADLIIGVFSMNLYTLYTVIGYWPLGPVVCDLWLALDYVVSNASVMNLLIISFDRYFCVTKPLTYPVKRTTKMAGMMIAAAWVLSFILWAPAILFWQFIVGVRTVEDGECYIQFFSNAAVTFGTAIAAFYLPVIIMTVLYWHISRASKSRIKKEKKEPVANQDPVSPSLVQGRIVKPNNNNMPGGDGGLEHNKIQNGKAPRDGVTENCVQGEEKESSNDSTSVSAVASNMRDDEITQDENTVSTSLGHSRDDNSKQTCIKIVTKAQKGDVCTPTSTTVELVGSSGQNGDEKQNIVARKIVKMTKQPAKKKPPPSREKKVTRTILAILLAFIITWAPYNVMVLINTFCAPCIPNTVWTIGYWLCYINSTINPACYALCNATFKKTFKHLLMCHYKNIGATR
Method: (§1) The affinity of test compounds for M2 and M3 muscarinic receptor subtypes was determined by [^3H]-N-methylscopolamine binding studies using rat heart and submandibular gland respectively as described by Moriya et al., (Life Sci, 1999, 64(25):2351-2358) with minor modifications.
(§2) Membrane preparation: Submandibular glands and heart were isolated and placed in ice cold homogenising buffer (HEPES 20 mM, 10 mM EDTA, pH 7.4) immediately after sacrifice. The tissues were homogenised in 10 volumes of homogenising buffer and the homogenate was filtered through two layers of wet gauze and filtrate was centrifuged at 500 g for 10 min. The supernatant was subsequently centrifuged at 40,000 g for 20 min. The pellet thus obtained was resuspended in same volume of assay buffer (HEPES 20 mM, EDTA 5 mM, pH 7.4) and were stored at −70° C. until the time of assay.
(§3) Ligand binding assay: The compounds were dissolved and diluted in DMSO. The membrane homogenates (150-250 μg protein) were incubated in 250 μl of assay buffer (HEPES 20 mM, pH 7.4) at 24-25° C. for 3 h. Non-specific binding was determined in the presence of 1 μM atropine. The incubation was terminated by vacuum filtration over GF/B fiber filters(Wallac). The filters were then washed with ice cold 50 mM Tris HCl buffer (pH 7.4). The filter mats were dried and bound radioactivity retained on filters was counted. The IC50 & Kd were estimated by using the non-linear curve fitting program using G Pad Prism software. The value of inhibition constant Ki was calculated from competitive binding studies by using Cheng & Prusoff equation (Biochem Pharmacol, 1973, 22: 3099-3108), Ki=IC50/(1+L/Kd), where L is the concentration of
(§4) [^3H]NMS used in the particular experiment.

M3 muscarinic receptor = molecular target: T2, M3 muscarinic receptor (Rattus norvegicus, UniProt P08483); experiment: Radioligand binding assay, [3H]-N-methylscopolamine, rat submandibular gland membranes; conditions: [3H]-NMS
T2 construct: from tissue; host or cells: rat submandibular gland membrane homogenate
Method: as §1, §2, §3, §4

isolated rat bladder = experiment: Functional experiments using isolated rat bladder (carbachol-induced contraction); conditions: isolated rat bladder strips, carbachol concentration response curve
Method: Functional Experiments Using Isolated Rat Bladder:
Animals were euthanized by overdose of urethane and whole bladder was isolated and removed rapidly and placed in ice cold Tyrode buffer with the following composition (mMol/L) NaCl 137; KCl 2.7; CaCl2 1.8; MgCl2 0.1; NaHCO3 11.9; NaH2PO4 0.4; Glucose 5.55 and continuously gassed with 95% O2 and 5% CO2.
The bladder was cut into longitudinal strips (3 mm wide and 5-6 mm long) and mounted in 10 ml organ baths at 30° C., with one end connected to the base of the tissue holder and the other end connected to a polygraph through a force displacement transducer. Each tissue was maintained at a constant basal tension of 2 g and allowed to equilibrate for 1 hour during which the PSS was changed every 15 min. At the end of equilibration period the stabilization of the tissue contractile response was assessed with 1 μmol/L of Carbachol consecutively for 2-3 times. Subsequently a cumulative concentration response curve to carbachol (10^−9 mol/L to 3×10^−5 mol/L) was obtained. After several washes, once the baseline was achieved, cumulative concentration response curve was obtained in presence of NCE (NCE added 20 min. prior to the second CRC).
The contractile results were expressed as % of control E max. ED50 values were calculated by fitting a non-linear regression curve (Graph Pad Prism). pKB values were calculated by the formula pKB=−log [(molar concentration of antagonist/(dose ratio-1))]
• dose ratio=ED50 in the presence of antagonist/ED50 in the absence of antagonist.

[1] = read-out: Receptor Binding Assay M2 pKi (converted)
[2] = read-out: Receptor Binding Assay M3 pKi (converted)

T2 sequence (P08483 whole entry): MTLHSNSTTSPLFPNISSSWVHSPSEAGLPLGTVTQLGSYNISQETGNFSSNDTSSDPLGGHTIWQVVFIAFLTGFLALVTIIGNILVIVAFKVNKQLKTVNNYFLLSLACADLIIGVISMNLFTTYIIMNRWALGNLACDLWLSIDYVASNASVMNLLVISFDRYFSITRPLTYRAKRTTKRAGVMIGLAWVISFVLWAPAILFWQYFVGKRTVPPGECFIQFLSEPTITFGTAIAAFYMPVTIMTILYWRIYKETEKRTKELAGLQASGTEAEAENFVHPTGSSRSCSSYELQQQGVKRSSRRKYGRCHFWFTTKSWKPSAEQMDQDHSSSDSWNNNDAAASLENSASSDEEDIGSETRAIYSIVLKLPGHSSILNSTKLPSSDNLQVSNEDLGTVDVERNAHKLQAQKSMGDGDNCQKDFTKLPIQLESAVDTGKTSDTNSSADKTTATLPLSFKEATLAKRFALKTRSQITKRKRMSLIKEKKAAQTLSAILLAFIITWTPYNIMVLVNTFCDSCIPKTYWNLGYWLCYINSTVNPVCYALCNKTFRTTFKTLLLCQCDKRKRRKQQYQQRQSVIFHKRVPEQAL

| SMILES | Ki (M2 muscarinic receptor; [1]) [nM] | Ki (M3 muscarinic receptor; [2]) [nM] | Functional Assay pKB (isolated rat bladder) | Ki (M2 muscarinic receptor; Receptor Binding Assay M2 pKi) [nM] | Ki (M3 muscarinic receptor; Receptor Binding Assay M3 pKi) [nM] |
| --- | --- | --- | --- | --- | --- |
| O=C(Cc1ccccc1)NC1CCC([C@](O)(C(=O)NC[C@@H]2[C@H]3CN(Cc4ccccc4)C[C@@H]23)c2ccccc2)C1 (stereo partly drawn) [Compound No. 5, (2R)-(1α,5α,6α)-N-[3-benzyl-3-azabicyclo[3.1.0]hexyl-6-(aminomethyl)-yl]-2-[(1R or 1S, 3R or 3S)-3-phenylacetylaminocyclopentyl]-2-hydroxy-2-phenylacetamide] | 832 | 39.8 | 7.07 ± 0.11 | – | – |
| O=C(NCC1C2CN(Cc3ccccc3)CC12)C(O)(c1ccccc1)C1CCC(F)(F)C1 (mixture of isomers) [Compound No. 3, (2Ror 2S)-(1α,5α,6α)-N-[3-benzyl-3-azabicyclo[3.1.0]hexyl-6-(aminomethyl)-yl]-2-[(1R or 1S)-3,3-difluorocyclopentyl]-2-hydroxy-2-phenyl acetamide] | 251 | 6.31 | 8.55 ± 0.25 | – | – |
| O=C(NC[C@@H]1[C@H]2CN(Cc3ccccc3)C[C@@H]12)[C@](O)(c1ccccc1)C1CCC(F)(F)C1 (single isomer, unassigned) [Compound No. 1B, (2R)-(1α,5α,6α)-N-[3-benzyl-3-azabicyclo[3.1.0]hexyl-6-(aminomethyl)-yl]-2-[(1R or 1S)-3,3-difluorocyclopentyl]-2-hydroxy-2-phenylacetamide] | 229 | 6.17 | 8.98 ± 0.06 | – | – |
| COc1ccc(S(=O)(=O)NC2CCC([C@](O)(C(=O)NC[C@@H]3[C@H]4CN(Cc5ccccc5)C[C@@H]34)c3ccccc3)C2)cc1 (stereo partly drawn) [Compound No. 9, (2R)-(1α,5α,6α)-N-[3-benzyl-3-azabicyclo[3.1.0]hexyl-6-(aminomethyl)-yl]-2-[(1R or 1S, 3R or 3S)-3-(4-methoxyphenyl)sulphonylaminocyclopentyl]-2-hydroxy-2-phenylacetamide] | – | – | – | > 1000 | 204 |
| O=C(NC[C@@H]1[C@H]2CN(Cc3ccccc3)C[C@@H]12)[C@](O)(c1ccccc1)C1CCC(F)(F)C1 (single isomer, unassigned) [Compound No. 1A, (2R)-(1α,5α,6α)-N-[3-benzyl-3-azabicyclo[3.1.0]hexyl-6-(aminomethyl)-yl]-2-[(1R or 1S)-3,3-difluorocyclopentyl]-2-hydroxy-2-phenylacetamide] | 135 | 5.62 | 9.1 ± 0.2 | – | – |
| O=C(NCC1C2CN(Cc3ccccc3)CC12)C(O)(c1ccccc1)C1CCC(F)C1 (single isomer, unassigned) [Compound No. 4, (2R or 2S)-(1α,5α,6α)-N-[3-benzyl-3-azabicyclo[3.1.0]hexyl-6-(aminomethyl)-yl]-2-[(1R or 1S, 3R or 3S)-3-fluorocyclopentyl]-2-hydroxy-2-phenyl acetamide] | 138 | 5.89 | 8.33 ± 0.15 | – | – |
| O=C(COCc1ccccc1)NC1CCC(C(O)(C(=O)NCC2C3CN(Cc4ccccc4)CC23)c2ccccc2)C1 (single isomer, unassigned) [Compound No. 8, (2R)-(1α,5α,6α)-N-[3-benzyl-3-azabicyclo[3.1.0]hexyl-6-(aminomethyl)-yl]-2-[(1R or 1S, 3R or 3S)-3-benzyloxyacetylaminocyclopentyl]-2-hydroxy-2-phenylacetamide] | 209 | 34.7 | 7.08 ± 0.18 | – | – |
| O=C(NC[C@@H]1[C@H]2CN(Cc3ccccc3)C[C@@H]12)[C@](O)(c1ccccc1)C1CCC(F)C1 (stereo partly drawn) [Compound No. 2, (2R(1α,5α,6α)-N-[3-benzyl-3-azabicyclo[3.1.0]hexyl-6-(aminomethyl)-yl]-2-[(1R or 1S, 3R or 3S)-3-fluorocyclopentyl]-2-hydroxy-2-phenylacetamide] | 126 | 3.98 | 8.84 ± 0.07 | – | – |
| O=C(NCC1C2CN(Cc3ccccc3)CC12)C(O)(c1ccccc1)C1CCC(NS(=O)(=O)c2ccc([N+](=O)[O-])cc2)C1 (single isomer, unassigned) [Compound No. 6, (2R)-(1α,5α,6α)-N-[3-benzyl-3-azabicyclo[3.1.0]hexyl-6-(aminomethyl)-yl]-2-[(1R or 1S, 3R or 3S)-3-(4-nitrophenyl)sulphonylaminocyclopentyl]-2-hydroxy-2-phenylacetamide] | – | – | 7.21 ± 0.20 | > 1580 | 21.9 |
| O=C(NC[C@@H]1[C@H]2CN(Cc3ccccc3)C[C@@H]12)[C@](O)(c1ccccc1)C1CCC(NS(=O)(=O)c2ccc(Br)cc2)C1 (stereo partly drawn) [Compound No. 10, (2R)-(1α,5α,6α)-N-[3-benzyl-3-azabicyclo[3.1.0]hexyl-6-(aminomethyl)-yl]-2-[(1R or 1S, 3R or 3S)-3-(4-bromophenyl)sulphonylaminocyclopentyl]-2-hydroxy-2-phenylacetamide] | – | – | – | > 1000 | 129 |
| O=C(NC[C@@H]1[C@H]2CN(Cc3ccccc3)C[C@@H]12)[C@](O)(c1ccccc1)C1CCC(NS(=O)(=O)c2ccccc2)C1 (stereo partly drawn) [Compound No. 7, (2R)-(1α,5α,6α)-N-[3-benzyl-3-azabicyclo[3.1.0]hexyl-6-(aminomethyl)-yl]-2-[(1R or 1S, 3R or 3S)-3-phenylsulphonylaminocyclopentyl]-2-hydroxy-2-phenylacetamide] | – | – | 6.89 ± 0.29 | > 1580 | 50.1 |
